From patent publication US20160243075A2, “TETRAHYDROCANNABIVARIN (THC) FOR USE IN THE PROTECTION OF PANCREATIC ISLET CELLS” (GW Pharma Limited, priority 2014, published 2016)
“Also recorded” adds a separate entry of the source.

How the values were obtained:
CB-1 receptor = CB-1 receptor (Homo sapiens, UniProt P21554); settings: receptor binding studies, GB 2434097; cited from earlier work
beta cell function = assay: HOMA2 beta cell function, change from baseline, subjects with Type 2 diabetes (Example 3); type: in vivo, human; settings: 5 mg THCV twice daily, end of study period, FIG. 17
Source text: (§1) Other measurements including: lipid parameters; glucose control (fasting plasma glucose, glucose tolerance, serum fructosamine, glycosylated haemoglobin A1c (HbA1c) (whole blood)); Insulin sensitivity (insulin resistance); body weight & body mass index (BMI); adipose tissue distribution (total % body fat content, waist circumference, neck circumference, waist-to-hip ratio, visceral adiposity, liver triglyceride content); and appetite 11 point numerical rating scale (0-10 NRS).
(§2) The study took place over 15-19 weeks (1-5 week baseline and 13 week treatment period and 1 week follow-up), and was a multicentre, randomised, double blind, placebo controlled, parallel group pilot study which evaluated the test compounds on lipid parameters in subjects with Type 2 diabetes.
(§3) Further study visits took place at the end of Week 4 of treatment (Visit 3, Day 29), and again at the end of treatment at Week 13 (Visit 5, Day 92). Subjects were asked to fast overnight before Visits 1 (or 1B), 2 and 5 (minimum 8 hours). A telephone assessment was also performed at Day 57 (Visit 4) and at Week 14 (Visit 6, Day 99) for safety follow-up.
(§4) As this was a pilot study, a formal sample size calculation was not required. Each treatment group consisted of 10 subjects. There was five treatment groups 1:1 and 20:1 ratio of CBD:THCV plus CBD alone, THCV alone and placebo. […]

[1] = Oral glucose tolerance test in subjects with Type 2 diabetes at Visit 5 (Example 3 pilot study); type: in vivo, human; settings: 5 mg THCV twice daily, Visit 5 (Week 13), compared to placebo
Source text: There were four arms in this study plus a placebo comparator. These were a 1:1 and 20:1 ratio of CBD:THCV, CBD alone and THCV alone. Assessment of the impact of each treatment on different parameters was made. Measurements were taken of high density lipoprotein (HDL) cholesterol, total cholesterol, low density lipoprotein (LDL) cholesterol, HDL/LDL ratio, serum triglycerides, apolipoprotein markers (Apo A & Apo B) and determination of ApoA/Apo B ratio.
as §1, §2
Further study visits took place at the end of Week 4 of treatment (Visit 3, Day 29), and again at the end of treatment at Week 13 (Visit 5, Day 92). […]

[2] = Blood samples for glucose and insulin in db/db mice (Example 1); type: in vivo
Experimental: (§5) The phytocannabinoids CBD (10 mg/kg) and THCV (10 mg/kg) were tested along with AM 251 (10 mg/kg) which was used as a positive control.
(§6) On day 1 dosing commenced for groups A to D as outlined in Table 1.1 above. Animals were dosed daily at 17:00.

[3] = HOMA2 insulin sensitivity, change from baseline, subjects with Type 2 diabetes (Example 3); type: in vivo, human; settings: 5 mg THCV twice daily, end of study period, FIG. 16
Source text: as §1, §2, §3, §4

[4] = test system: Glucagon-Like Peptide 1 (GLP-1); assay: Serum glucagon-like peptide 1 (GLP-1) levels, change from baseline, subjects with Type 2 diabetes (Example 3); type: in vivo, human; settings: oral 5 mg THCV twice daily, FIG. 18
Source text: Laboratory assessments included; physical examination; markers of vascular function; markers of adipocyte function including leptin and adiponectin; markers of inflammation including cytokines; retinol binding protein (RBP4) concentration; orexin type A (Orexin A) concentration; gut signalling hormone (Gastric Inhibitory Peptide (GIP), Glucagon-like peptide-1 (GLP-1), ghrelin) concentrations; ketone bodies; and endocannabinoid plasma levels.
as §2, §3
As this was a pilot study, a formal sample size calculation was not required. Each treatment group consisted of 10 subjects. There was five treatment groups 1:1 and 20:1 ratio of CBD:THCV plus CBD alone, THCV alone and placebo.

[5] = Bodyweight change and food intake of db/db mice over the 28 day study (Example 1); type: in vivo; settings: male db/db mice, 10 mg/kg daily
Experimental: as §5, §6

pancreatic islet cells = assay: Histology/morphology of insulin-stained pancreas in diabetic db/db mice (Example 1); type: in vivo; settings: male db/db mice, 10 mg/kg daily
Experimental: as §5
At the start of the study the Group E animals were sacrificed and a terminal blood sample was taken. In addition four of the animals pancreases were sampled for determination of β-cell area, islet size and β-cell mass by […].
as §6
At the end of the study the animals were sacrificed and a terminal blood sample was taken. In addition four of the animals pancreases were sampled for determination of islet β-cell area, islet size and islet β-cell mass by […].
The pancreases were stained for insulin and the pancreatic islet cells were examined under a microscope to determine the amount of insulin in the cells.

CB-1 receptor, sequence (P21554 whole entry): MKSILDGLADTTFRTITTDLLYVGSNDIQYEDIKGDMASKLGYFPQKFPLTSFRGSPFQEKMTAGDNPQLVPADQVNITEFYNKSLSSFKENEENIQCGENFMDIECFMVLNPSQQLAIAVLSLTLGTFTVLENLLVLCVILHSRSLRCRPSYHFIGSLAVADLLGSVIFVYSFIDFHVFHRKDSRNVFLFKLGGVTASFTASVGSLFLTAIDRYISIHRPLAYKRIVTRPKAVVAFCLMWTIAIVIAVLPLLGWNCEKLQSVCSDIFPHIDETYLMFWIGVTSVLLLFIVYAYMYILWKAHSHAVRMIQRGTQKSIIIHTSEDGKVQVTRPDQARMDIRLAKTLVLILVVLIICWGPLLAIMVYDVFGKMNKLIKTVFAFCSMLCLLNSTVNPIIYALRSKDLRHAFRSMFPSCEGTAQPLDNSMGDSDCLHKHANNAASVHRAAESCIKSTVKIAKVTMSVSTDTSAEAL

Row | SMILES | CB-1 receptor pharmacology (CB-1 receptor) | HOMA2 beta cell function, mean change from baseline (beta cell function) | concentration of insulin during oral glucose tolerance test, mean change from baseline ([1]; FIG. 14) | concentration of blood glucose during oral glucose tolerance test, mean change from baseline ([1]; FIG. 15) | blood glucose concentration during a 24 hour period ([2]; male db/db mice, 10 mg/kg daily, FIG. 7) | reduction in blood glucose ([2]; male db/db mice, 10 mg/kg daily, conclusion of Example 1) | fasting insulin ([2]; rodent model of diabetes) | HOMA2 insulin sensitivity, mean change from baseline [3] | change from baseline in mean serum GLP-1 levels [4] | food intake [5] | retention of insulin in the pancreatic islet (insulin staining, histology) (pancreatic islet cells; 28 day study, FIGS. 2-5, 10 mg/kg) | pancreatic islet beta cell mass (morphological analysis) (pancreatic islet cells; end of study, FIG. 8) | weight gain (bodyweight change over the study period) ([5]; FIG. 6)
1 | CCCc1cc(O)c2c(c1)OC(C)(C)[C@@H]1CCC(C)=C[C@@H]21 [THCV, Tetrahydrocannabivarin] | neutral antagonist | much increased beta cell function compared to all the other groups | increases over the first hour and then reduces down to the same level as the placebo after 2 hours | quickly reducing the blood glucose level compared to placebo | more controlled during a 24 hour period | without having a profound reduction in blood glucose | reduction in fasting insulin | increased sensitivity to insulin | highest increase in GLP-1 | slightly lower | greater retention of insulin in the pancreatic islet than both AM251 and CBD; also recorded: statistically more insulin present in the pancreatic islets | higher in the THCV treated animals than in the vehicle and CBD and AM251 treated groups | 
2 | Cc1c(C(=O)NN2CCCCC2)nn(-c2ccc(Cl)cc2Cl)c1-c1ccc(I)cc1 [AM 251] |  |  |  |  |  |  |  |  |  | slightly lower |  |  | 
3 | C=C(C)[C@@H]1CCC(C)=C[C@H]1c1c(O)cc(CCCCC)cc1O [CBD, cannabidiol] |  |  |  |  |  |  |  |  |  |  |  |  | increased weight gain
